Assay results reported in ChEMBL document CHEMBL3525901 (Drug Metab Dispos, 2012).

What was measured:
Assay type in all cases: ADME, organism-based
[1] = Unbound Tmax in Wistar rat plasma at […], sc by HPLC-MS/MS analysis; parameters: dose 1.6 mg/kg, route subcutaneous; conditions: read-out: fTmax (converted)
[2] = Fraction unbound in Wistar rat plasma at […], sc by HPLC-MS/MS analysis; parameters: dose 1.6 mg/kg, route subcutaneous
[3] = tested on: Rattus norvegicus; assay: Absorption rate constant in Wistar rat extracellular fluid at […], sc by HPLC-MS/MS analysis; parameters: dose 1.6 mg/kg, route subcutaneous; conditions: in vivo
[4] = Ratio of uptake clearance to efflux clearance in Wistar rat brain extracellular fluid at […], sc by HPLC-MS/MS analysis; parameters: dose 1.6 mg/kg, route subcutaneous; conditions: in vivo
[5] = Cmax in Wistar rat extracellular fluid at […], sc by HPLC-MS/MS analysis; parameters: dose 1.6 mg/kg, route subcutaneous
[6] = tested on: Brain; assay: Unbound volume of distribution in Wistar rat brain at […], sc by HPLC-MS/MS analysis; parameters: dose 1.6 mg/kg, route subcutaneous; conditions: in vivo
[7] = Systemic clearance in Wistar rat extracellular fluid at […], sc by HPLC-MS/MS analysis; parameters: dose 1.6 mg/kg, route subcutaneous
[8] = tested on: Plasma; assay: Unbound AUC (0 to infinity) in Wistar rat plasma at […], sc by HPLC-MS/MS analysis; parameters: dose 1.6 mg/kg, route subcutaneous; conditions: in vivo
[9] = AUC (0 to infinity) in Wistar rat extracellular fluid at […], sc by HPLC-MS/MS analysis; parameters: dose 1.6 mg/kg, route subcutaneous, time infinity
[10] = Tmax in Wistar rat extracellular fluid at […], sc by HPLC-MS/MS analysis; parameters: dose 1.6 mg/kg, route subcutaneous
[11] = tested on: Rattus norvegicus; assay: Central volume of distribution in Wistar rat extracellular fluid at […], sc by HPLC-MS/MS analysis; parameters: dose 1.6 mg/kg, route subcutaneous; conditions: in vivo
[12] = Equilibration rate constant in Wistar rat brain extracellular fluid at […], sc by HPLC-MS/MS analysis; parameters: dose 1.6 mg/kg, route subcutaneous; conditions: in vivo
[13] = Ratio of steady state drug level in extracellular fluid to unbound drug level in plasma of Wistar rat at […], sc by HPLC-MS/MS analysis; parameters: dose 1.6 mg/kg, route subcutaneous
[14] = Ratio of unbound AUC in extracellular fluid to unbound AUC in plasma of Wistar rat at […], sc by HPLC-MS/MS analysis; parameters: dose 1.6 mg/kg, route subcutaneous; conditions: read-out: Ratio AUC
[15] = tested on: Plasma; assay: Unbound Cmax in Wistar rat plasma at […], sc by HPLC-MS/MS analysis; parameters: dose 1.6 mg/kg, route subcutaneous; conditions: in vivo
[16] = Tmax in Wistar rat extracellular fluid at 3 mg/kg, sc by HPLC-MS/MS analysis; parameters: dose 3 mg/kg, route subcutaneous
[17] = Ratio of steady state drug level in extracellular fluid to unbound drug level in plasma of Wistar rat at 3 mg/kg, sc by HPLC-MS/MS analysis; parameters: dose 3 mg/kg, route subcutaneous
[18] = tested on: Rattus norvegicus; assay: Absorption rate constant in Wistar rat extracellular fluid at 3 mg/kg, sc by HPLC-MS/MS analysis; parameters: dose 3 mg/kg, route subcutaneous; conditions: in vivo
[19] = Fraction unbound in Wistar rat plasma at 3 mg/kg, sc by HPLC-MS/MS analysis; parameters: dose 3 mg/kg, route subcutaneous
[20] = tested on: Plasma; assay: Unbound AUC (0 to infinity) in Wistar rat plasma at 3 mg/kg, sc by HPLC-MS/MS analysis; parameters: dose 3 mg/kg, route subcutaneous; conditions: in vivo
[21] = Ratio of uptake clearance to efflux clearance in Wistar rat brain extracellular fluid at 3 mg/kg, sc by HPLC-MS/MS analysis; parameters: dose 3 mg/kg, route subcutaneous; conditions: in vivo
[22] = Unbound Tmax in Wistar rat plasma at 3 mg/kg, sc by HPLC-MS/MS analysis; parameters: dose 3 mg/kg, route subcutaneous; conditions: read-out: fTmax (converted)
[23] = tested on: Rattus norvegicus; assay: Central volume of distribution in Wistar rat extracellular fluid at 3 mg/kg, sc by HPLC-MS/MS analysis; parameters: dose 3 mg/kg, route subcutaneous; conditions: in vivo
[24] = tested on: Plasma; assay: Unbound Cmax in Wistar rat plasma at 3 mg/kg, sc by HPLC-MS/MS analysis; parameters: dose 3 mg/kg, route subcutaneous; conditions: in vivo
[25] = Cmax in Wistar rat extracellular fluid at 3 mg/kg, sc by HPLC-MS/MS analysis; parameters: dose 3 mg/kg, route subcutaneous
[26] = Ratio of unbound AUC in extracellular fluid to unbound AUC in plasma of Wistar rat at 3 mg/kg, sc by HPLC-MS/MS analysis; parameters: dose 3 mg/kg, route subcutaneous; conditions: read-out: Ratio AUC
[27] = Equilibration rate constant in Wistar rat brain extracellular fluid at 3 mg/kg, sc by HPLC-MS/MS analysis; parameters: dose 3 mg/kg, route subcutaneous; conditions: in vivo
[28] = tested on: Brain; assay: Unbound volume of distribution in Wistar rat brain at 3 mg/kg, sc by HPLC-MS/MS analysis; parameters: dose 3 mg/kg, route subcutaneous; conditions: in vivo
[29] = Systemic clearance in Wistar rat extracellular fluid at 3 mg/kg, sc by HPLC-MS/MS analysis; parameters: dose 3 mg/kg, route subcutaneous
[30] = AUC (0 to infinity) in Wistar rat extracellular fluid at 3 mg/kg, sc by HPLC-MS/MS analysis; parameters: time infinity, dose 3 mg/kg, route subcutaneous
[31] = Ratio of steady state drug level in extracellular fluid to unbound drug level in plasma of Wistar rat at 10 mg/kg, sc by HPLC-MS/MS analysis; parameters: dose 10 mg/kg, route subcutaneous
[32] = tested on: Plasma; assay: Unbound Cmax in Wistar rat plasma at 10 mg/kg, sc by HPLC-MS/MS analysis; parameters: dose 10 mg/kg, route subcutaneous; conditions: in vivo
[33] = Tmax in Wistar rat extracellular fluid at 10 mg/kg, sc by HPLC-MS/MS analysis; parameters: dose 10 mg/kg, route subcutaneous
[34] = tested on: Brain; assay: Unbound volume of distribution in Wistar rat brain at 10 mg/kg, sc by HPLC-MS/MS analysis; parameters: dose 10 mg/kg, route subcutaneous; conditions: in vivo
[35] = Fraction unbound in Wistar rat plasma at 10 mg/kg, sc by HPLC-MS/MS analysis; parameters: dose 10 mg/kg, route subcutaneous
[36] = Ratio of unbound AUC in extracellular fluid to unbound AUC in plasma of Wistar rat at 10 mg/kg, sc by HPLC-MS/MS analysis; parameters: dose 10 mg/kg, route subcutaneous; conditions: read-out: Ratio AUC
[37] = Cmax in Wistar rat extracellular fluid at 10 mg/kg, sc by HPLC-MS/MS analysis; parameters: dose 10 mg/kg, route subcutaneous
[38] = AUC (0 to infinity) in rat; parameters: time infinity; conditions: plasma
[39] = tested on: Plasma; assay: Unbound AUC (0 to infinity) in Wistar rat plasma at 10 mg/kg, sc by HPLC-MS/MS analysis; parameters: dose 10 mg/kg, route subcutaneous; conditions: in vivo
[40] = AUC (0 to infinity) in Wistar rat extracellular fluid at 10 mg/kg, sc by HPLC-MS/MS analysis; parameters: time infinity, dose 10 mg/kg, route subcutaneous
[41] = Unbound Tmax in Wistar rat plasma at 10 mg/kg, sc by HPLC-MS/MS analysis; parameters: dose 10 mg/kg, route subcutaneous; conditions: read-out: fTmax (converted)
[42] = Ratio of uptake clearance to efflux clearance in Wistar rat brain extracellular fluid at 10 mg/kg, sc by HPLC-MS/MS analysis; parameters: dose 10 mg/kg, route subcutaneous; conditions: in vivo
[43] = Equilibration rate constant in Wistar rat brain extracellular fluid at 10 mg/kg, sc by HPLC-MS/MS analysis; parameters: dose 10 mg/kg, route subcutaneous; conditions: in vivo
[44] = tested on: Rattus norvegicus; assay: Central volume of distribution in Wistar rat extracellular fluid at 10 mg/kg, sc by HPLC-MS/MS analysis; parameters: dose 10 mg/kg, route subcutaneous; conditions: in vivo
[45] = Systemic clearance in Wistar rat extracellular fluid at 10 mg/kg, sc by HPLC-MS/MS analysis; parameters: dose 10 mg/kg, route subcutaneous
[46] = tested on: Rattus norvegicus; assay: Absorption rate constant in Wistar rat extracellular fluid at 10 mg/kg, sc by HPLC-MS/MS analysis; parameters: dose 10 mg/kg, route subcutaneous; conditions: in vivo

**Q.** With `CN(C)CCC[C@@]1(c2ccc(F)cc2)OCc2cc(C#N)ccc21` [ESCITALOPRAM] as the compound, how does the Tmax [1] read?
**A.** The Tmax was 0.433 h.

**Q.** What about the fraction unbound [2] of the same compound?
**A.** The fraction unbound was 0.5.

**Q.** And the ka [3]?
**A.** Its ka is 0.02 min⁻¹.

**Q.** And the Ratio [4]?
**A.** Its Ratio is 1.24.

**Q.** And the Cmax [5]?
**A.** Its Cmax is 62 nM.

**Q.** And the Vdu [6]?
**A.** The Vdu was 18 mL/g.

**Q.** What about the CL/F [7] of the same compound?
**A.** Its CL/F is 277 mL/min/kg.

**Q.** And the fAUC [8]?
**A.** Its fAUC is 13888 nM·min.

**Q.** And the AUC(0-inf) [9]?
**A.** The AUC(0-inf) was 0.197 µM·h.

**Q.** What about the Tmax [10] of the same compound?
**A.** The Tmax was 2 h.

**Q.** And the Vd [11]?
**A.** Its Vd is 4.1 L/kg.

**Q.** What about the Ke [12] of the same compound?
**A.** The Ke was 0.015 min⁻¹.

**Q.** And the Kp uu [13]?
**A.** The Kp uu was 1.06.

**Q.** What about the Kp uu [14] of the same compound?
**A.** Its Kp uu is 0.86.

**Q.** And the fCmax [15]?
**A.** Its fCmax is 131 nM.

**Q.** Which Tmax [16] does the source give for `Cc1nc2n(c(=O)c1CCN1CCC(c3noc4cc(F)ccc34)CC1)CCCC2` [RISPERIDONE] here?
**A.** Its Tmax is 1.25 h.

**Q.** What about the Kp uu [17] of the same compound?
**A.** Its Kp uu is 0.21.

**Q.** What about the ka [18] of the same compound?
**A.** The ka was 0.03 min⁻¹.

**Q.** What about the fraction unbound [19] of the same compound?
**A.** The fraction unbound was 0.16.

**Q.** And the fAUC [20]?
**A.** Its fAUC is 24022 nM·min.

**Q.** What about the Ratio [21] of the same compound?
**A.** Its Ratio is 0.14.

**Q.** What about the Tmax [22] of the same compound?
**A.** Its Tmax is 0.883 h.

**Q.** What about the Vd [23] of the same compound?
**A.** The Vd was 21 L/kg.

**Q.** What about the fCmax [24] of the same compound?
**A.** Its fCmax is 181 nM.

**Q.** And the Cmax [25]?
**A.** The Cmax was 20 nM.

**Q.** What about the Kp uu [26] of the same compound?
**A.** Its Kp uu is 0.15.

**Q.** What about the Ke [27] of the same compound?
**A.** Its Ke is 0.006 min⁻¹.

**Q.** And the Vdu [28]?
**A.** Its Vdu is 10 mL/g.

**Q.** And the CL/F [29]?
**A.** The CL/F was 307 mL/min/kg.

**Q.** And the AUC(0-inf) [30]?
**A.** The AUC(0-inf) was 0.0591 µM·h.

**Q.** Which results are given for `CN1CCN(C2=Nc3cc(Cl)ccc3Nc3ccccc32)CC1` [CLOZAPINE]?
**A.** Kp uu [31]: 0.13; fCmax [32]: 77 nM; Tmax [33]: 4 h; Vdu [34]: 70 mL/g; fraction unbound [35]: 0.061; Kp uu [36]: 0.15; Cmax [37]: 6 nM; AUC(0-inf) [38]: 5.39 µM·h; fAUC [39]: 19732 nM·min; AUC(0-inf) [40]: 0.0443 µM·h; Tmax [41]: 1 h

**Q.** What does the source list for `Clc1ccc2c(c1)N=C(N1CCNCC1)c1ccccc1N2` [N-DESMETHYLCLOZAPINE]?
**A.** Kp uu [31]: 0.04; fCmax [32]: 90 nM; Tmax [33]: 4.63 h; Vdu [34]: 82 mL/g; fraction unbound [35]: 0.11; Ratio [42]: 0.05; Kp uu [36]: 0.03; Cmax [37]: 2 nM; fAUC [39]: 32296 nM·min; Ke [43]: 0.006 min⁻¹; Vd [44]: 607 L/kg; CL/F [45]: 1600 mL/min/kg; ka [46]: 0.5 min⁻¹; AUC(0-inf) [40]: 0.0134 µM·h; Tmax [41]: 1.05 h
